Experimental data reported in US9557338B2 (SIGNAL PHARMACEUTICALS, LLC, priority 2012, dated 2017).
Where two headings read alike, the source gives them in different places.

Columns and labels:
Type in all cases: cell-based
[1] = test system: Akt(S473); experiment: Inhibition of Akt(S473) phosphorylation in cell lines; settings: data not shown
[2] = test system: S6RP(S235/S236); experiment: Inhibition of S6RP(S235/S236) phosphorylation in cell lines; settings: Homo sapiens, read-out: IC50 for inhibition of S6RP(S235/S236) phosphorylation
[3] = test system: Phospho-4E-BP1(T46); experiment: Luminex multiplex assay, Phospho-4E-BP1(T46); settings: not inhibited up to concentrations tested; read-out: inhibition of 4E-BP1(T46) phosphorylation
Description: Determination of Phospho-GSK3β(S9), Phospho-PRAS40(T246) and Phospho-4E-BP1(T46) and the Effect of Compound 1 or Rapamycin.
The multiplex Luminex assay format differs from conventional enzyme-linked immunosorbent assay (ELISA) in that the multiplex capture antibody is attached to a polystyrene bead whereas the ELISA capture antibody is attached to the microplate well. The use of the suspension bead-based technology enables the multiplexing capabilities of the Luminex assays. The xMAP® technology uses 5.6 micron polystyrene microspheres, which are internally dyed with red and infrared fluorophores of differing intensities. Each bead is given a unique number, or bead region, allowing differentiation of one bead from another. Beads covalently bound to different specific antibodies can be mixed in the same assay, utilizing a 96-well microplate format. At the completion of the sandwich immunoassay, beads can be read, using the Luminex 100™ or Luminex 200 detection system, in single-file by dual lasers for classification and quantification of each analyte. The Akt-Pathway Phospho 5-plex kit used was custom made and includes the ability to simultaneously measure p-GSK3β (S9), p-PRAS40(T246), and p-4E-BP1(T46).
Cells were plated at the required density. The cells were treated with either Compound 1 or rapamycin over a range of concentrations for 1 hour in 5% CO2 at 37° C. Compound 1 and rapamycin were used at the same concentrations as for the proliferation assay. As for the cell proliferation assay, a reference standard was included in the assay for PC3 cells and the coefficient of variation for assay of p-GSK3β(S9) was 37.8% (n=30), p-PRAS40(T246) was 27.8% (n=30) and for p4E-BP1(T46) was 13.5% (n=4). For three cell lines (HCT-116, MDA-MB-231 and HT29) in the assay for phosphorylation of GSK3β, PRAS40 and 4E-BP1, IGF-I stimulation (500 ng/mL, recombinant human IGF-I) for the last 10 min of incubation was used. The media was aspirated from the wells and the plate was placed on ice. Then 35 μL of Lysis Buffer was added to each well and incubated on ice for at least 30 minutes. During the incubation, the standard curve for each phosphoprotein was prepared. The standards provided were reconstituted and serial dilutions were prepared according to the manufacturer's instructions. At the end of the cell lysis step, […] of the lysate was transferred to a V-bottom plate and spun at 4° C. at 2000 rpm for 5 minutes. Both the 1× Luminex bead and 1× detector antibody solutions were prepared during this time. The 1× bead solution was vortexed and 25 μL was added into each well of a black round bottom plate. Then 50 μL of the 1× detector antibody was added to each well. Fifty microliters (50 μL) of the prepared standards were added to the designated wells. Then 25 μL of the assay diluent was added to each well designated for the compound-treated cell lysates. At the end of the spin, 25 μL of cell lysate was added to the corresponding wells of the black assay plate. The assay plate was covered with the white plate lid and incubated for 3 hours at room temperature on an orbital shaker.
Approximately 10-15 minutes prior to the end of the first incubation, the secondary antibody solution was prepared according to the vendor's protocol. Goat anti-rabbit R-phycoerythrin red fluorescent protein (RPE) supplied as a 10× concentrate was diluted to generate a 1× goat anti-rabbit RPE stock. The 96-well filter plate was pre-wet with 200 μL of 1× Working wash solution. At the end of the 3 hour incubation, a multichannel pipette was used to transfer the entire contents from each assay well into the wells of the filter plate. The liquid from the wells was removed by aspiration with the vacuum manifold. Then 200 μL of 1× Working wash solution was added into each well. The wash solution was aspirated using the vacuum manifold after 15-30 seconds. This wash step was repeated one time. The bottom of the plate was blotted on clean paper towels to remove residual liquid. […]

IC50 ([2]; HCT-116, HCT116 cell line): 0.029 nM
IC50 ([2]; PC-3, PC3 cell line): 0.019 nM
IC50 [3]: > 10000 nM
SMILES: CO[C@H]1C[C@@H]2CC[C@@H](C)[C@@](O)(O2)C(=O)C(=O)N2CCCC[C@H]2C(=O)O[C@H]([C@H](C)C[C@@H]2CC[C@@H](O)[C@H](OC)C2)CC(=O)[C@H](C)/C=C(\C)[C@@H](O)[C@@H](OC)C(=O)[C@H](C)C[C@H](C)/C=C/C=C/C=C/1C [rapamycin, reference compound]
inhibition of the phosphorylation of Akt(S473) [1]: did not inhibit
